Experiments:
[1] = target: T1, Ubiquitin carboxyl-terminal hydrolase 2 (Homo sapiens, UniProt O75604); assay: Inhibition of USP2 (unknown origin) using Di-Ub IQF K48-4 as substrate preincubated for 10 mins followed by substrate addition by high-throughput assay
T1 sequence (O75604 whole entry): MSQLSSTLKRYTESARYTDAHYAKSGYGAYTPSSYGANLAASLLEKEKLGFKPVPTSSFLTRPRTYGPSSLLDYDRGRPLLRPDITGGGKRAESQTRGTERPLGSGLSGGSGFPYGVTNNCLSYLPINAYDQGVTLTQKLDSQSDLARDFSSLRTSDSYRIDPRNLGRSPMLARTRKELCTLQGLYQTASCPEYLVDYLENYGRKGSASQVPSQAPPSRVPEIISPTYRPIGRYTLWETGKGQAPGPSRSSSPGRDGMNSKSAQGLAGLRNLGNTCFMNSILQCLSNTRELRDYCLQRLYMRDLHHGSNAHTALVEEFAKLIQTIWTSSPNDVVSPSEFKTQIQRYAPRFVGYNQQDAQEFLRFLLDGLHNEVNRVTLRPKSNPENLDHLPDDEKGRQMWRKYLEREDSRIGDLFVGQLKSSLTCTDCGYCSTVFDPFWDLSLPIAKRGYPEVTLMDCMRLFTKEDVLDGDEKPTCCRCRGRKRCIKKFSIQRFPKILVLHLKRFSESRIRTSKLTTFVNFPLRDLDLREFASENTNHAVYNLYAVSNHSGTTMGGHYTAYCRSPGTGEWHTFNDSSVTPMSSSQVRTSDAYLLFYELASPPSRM

[2] = target: T2, Ubiquitin carboxyl-terminal hydrolase 8 (Homo sapiens, UniProt P40818); assay: Inhibition of USP8 (unknown origin) using Di-Ub IQF K48-02 as substrate preincubated for 30 mins followed by substrate addition by high-throughput assay
T2 sequence (P40818 whole entry): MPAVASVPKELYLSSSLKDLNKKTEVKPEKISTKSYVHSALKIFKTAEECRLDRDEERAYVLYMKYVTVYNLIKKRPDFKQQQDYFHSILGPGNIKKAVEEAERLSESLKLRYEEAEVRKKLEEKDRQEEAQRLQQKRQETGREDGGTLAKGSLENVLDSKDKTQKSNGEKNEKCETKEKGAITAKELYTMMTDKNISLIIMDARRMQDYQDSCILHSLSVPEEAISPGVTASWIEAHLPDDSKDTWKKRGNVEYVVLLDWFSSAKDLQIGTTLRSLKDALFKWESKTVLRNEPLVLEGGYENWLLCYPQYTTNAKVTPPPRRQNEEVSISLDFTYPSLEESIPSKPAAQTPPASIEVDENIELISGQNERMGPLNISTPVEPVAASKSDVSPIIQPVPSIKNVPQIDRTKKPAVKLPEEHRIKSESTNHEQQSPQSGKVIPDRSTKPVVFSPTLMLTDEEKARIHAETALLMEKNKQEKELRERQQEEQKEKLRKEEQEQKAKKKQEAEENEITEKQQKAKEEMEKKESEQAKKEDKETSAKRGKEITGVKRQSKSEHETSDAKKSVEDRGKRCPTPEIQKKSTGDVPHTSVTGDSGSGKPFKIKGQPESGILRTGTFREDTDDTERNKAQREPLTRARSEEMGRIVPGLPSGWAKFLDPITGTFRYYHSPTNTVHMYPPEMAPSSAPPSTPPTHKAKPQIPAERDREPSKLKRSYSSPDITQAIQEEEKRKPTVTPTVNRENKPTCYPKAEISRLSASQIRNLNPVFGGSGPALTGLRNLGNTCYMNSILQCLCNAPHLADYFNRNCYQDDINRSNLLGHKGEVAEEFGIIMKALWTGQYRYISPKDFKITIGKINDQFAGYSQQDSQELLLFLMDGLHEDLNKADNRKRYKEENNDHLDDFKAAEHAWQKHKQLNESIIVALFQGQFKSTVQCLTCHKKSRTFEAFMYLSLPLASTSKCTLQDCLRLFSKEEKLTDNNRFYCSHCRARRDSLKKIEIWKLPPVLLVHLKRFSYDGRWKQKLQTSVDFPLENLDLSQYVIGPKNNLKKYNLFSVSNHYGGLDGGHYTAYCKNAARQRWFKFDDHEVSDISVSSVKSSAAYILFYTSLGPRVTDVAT

in vitro [3] = conditions: mouse, plasma
Description: Stability in mouse plasma assessed as compound remaining measured after 30 mins

[4] = target: T2, Ubiquitin carboxyl-terminal hydrolase 8; assay: Inhibition of N-terminal His6 tagged USP8 (734 to 1110 residues) (unknown origin) expressed in Escherichia coli BL21 (DE3) cells using ubiquitin-rhodamine-110 as substrate preincubated with compound for 30 mins followed by substrate addition measured after 30 mins by fluorometric assay
[5] = target: T1, Ubiquitin carboxyl-terminal hydrolase 2; assay: Inhibition of USP2 (267 to 599 residues) (unknown origin) expressed in Escherichia coli BL21 (DE3) cells using ubiquitin-rhodamine-110 as substrate preincubated with compound for 30 mins followed by substrate addition measured after 30 mins by fluorometric assay
MCF7 = assay: Antiproliferative activity against human MCF7 cells assessed as inhibition of cell growth incubated for 72 hrs by MTT assay; type: functional, cell-based; conditions: MCF7, 72 h
in vitro [6] = conditions: mouse, microsomes
Description: Stability in mouse microsomes assessed as compound remaining measured after 30 mins

[7] = Cytotoxicity against human MCF-10A cells assessed as inhibition of cell growth incubated for 72 hrs by MTT assay; type: toxicity, cell-based
in vitro [8] = conditions: human, microsomes
Description: Stability in human microsomes assessed as compound remaining measured after 30 mins

Row | IC50 [1] [µM] | IC50 [2] [µM] | remaining at 0.5 h (in vitro [3]) [%] | IC50 [4] [µM] | IC50 [5] [µM] | IC50 (MCF7) [µM] | remaining at 0.5 h (in vitro [6]) [%] | remaining at 0.5 h (in vitro [8]) [%] | Compound | IC50 at 72 h [7] [µM]
1 | < 0.8 | < 0.1 | – | – | – | – | – | – | CCCCS(=O)(=O)Cc1nc2c(nc1CS(=O)(=O)CCCC)C(=O)c1ccccc1C2=O | –
2 | – | – | > 90 | 4.7 | 3.6 | 9.3 | 72 | > 90 | Cc1ccc(S(=O)(=O)Nc2cc(C(F)(F)F)ccc2C(=O)Nc2nc(-c3ccccc3)cs2)cc1 | 14.5

Source: ChEMBL document CHEMBL5506002, “The discovery of potent USP2/USP8 dual-target inhibitors for the treatment of breast cancer via structure guided optimization of ML364” (Eur J Med Chem, 2024)
